Reference: patent publication US20240140938A1, “PREPARATION OF TETRAHYDROINDAZOLE DERIVATIVES AS NOVEL DIACYLGLYCERIDE O-ACYLTRANSFERASE 2 INHIBITORS” (MERCK SHARP & DOHME LLC, priority 2020, published 2024)

These compounds were tested against human DGAT2 (hDGAT2) (Homo sapiens (Human), UniProt Q96PD7) (assay: DGAT2 Enzymatic Activity Assay). Conditions: hDGAT2 Sf-9 membrane prep; 13C18-triolein product by LC/MS/MS; 25 μM diolein, 5 μM 13C oleoyl-CoA.
Assay type: biochemical
Description: Sf-9 insect cells were maintained in Grace's insect cell culture medium with 10% heated-inactivated fetal bovine serum, 1% Pluronic F-68 and 0.14 μg/ml Kanamycine sulfate at 27° C. in a shaker incubator. After infection with untagged baculovirus expressing human DGAT2 (hDGAT2) at multiplicity of infection (MOI) 3 for 48 hours, cells were harvested. Cell pellets were suspended in buffer containing 10 mM Tris-HCl pH 7.5, 1 mM EDTA, 250 mM sucrose and Complete Protease Inhibitor Cocktail (Sigma Aldrich), and sonicated on ice. Cell debris were removed by centrifugation at 2000×g for 15 minutes. Membrane fractions were isolated by ultracentrifugation (100,000×g), resuspended in the same buffer, and frozen (−80° C.) for later use. The protein concentration was determined with the Pierce™ BCA Protein Assay Kit (Thermo Fisher Scientific).
LC/MS/MS analyses were performed using Thermal Fisher's LX4-TSQ Vantage system. This system consists of an Agilent binary high-performance liquid chromatography (HPLC) pump and a TSQ Vantage triple quadrupole MS/MS instrument. For each sample, 2 μL samples from the top organic layer of in-plate liquid-liquid extraction were injected onto a Thermo Betabasic C4 column (2.1 mm×20 mm, 5 μm particle size). The samples were then eluted using the following conditions; mobile phase: Isopropanol: acetonitrile/10 mM ammonium formate=50/35/15 (v/v/v), flow rate: 0.8 mL/min, temperature: 25° C. Data was acquired in positive mode using a heated electrospray ionization (HESI) interface. […] The peak area was integrated by Xcalibur Quan software. The ratio between the ^13C18triolein generated in the reaction and spiked in internal standard ^13C21-triolein was used to generate percentage inhibition and IC50 values. Compound percentage inhibition was calculated by the following formula: Inhibition %=1−[(compound response−low control)/(high control−low control)]×100%.
DGAT2 activity was determined by measuring the amount of enzymatic product ^13C18-triolein (^13C-1,2,3-Tri(cis-9-octadecenoyl)glycerol) using the membrane prep mentioned above. The assay was carried out in ABgene 384-well assay plates in a final volume of 25 μL at rt.

Chain of human DGAT2 (hDGAT2) (Q96PD7 whole entry): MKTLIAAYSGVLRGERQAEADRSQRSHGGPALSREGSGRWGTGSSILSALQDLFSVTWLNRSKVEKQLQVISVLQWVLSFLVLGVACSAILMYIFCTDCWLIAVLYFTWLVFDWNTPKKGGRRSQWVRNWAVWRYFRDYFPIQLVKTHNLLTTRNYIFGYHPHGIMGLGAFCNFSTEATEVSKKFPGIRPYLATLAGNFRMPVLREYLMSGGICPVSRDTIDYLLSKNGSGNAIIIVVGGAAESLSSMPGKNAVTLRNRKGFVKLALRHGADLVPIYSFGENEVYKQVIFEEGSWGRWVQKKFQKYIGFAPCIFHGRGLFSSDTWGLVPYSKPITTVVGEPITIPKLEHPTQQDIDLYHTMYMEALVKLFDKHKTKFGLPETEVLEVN

First: CC1(NC(=O)C2COc3c(-c4cccc(OC(F)F)c4)nn(-c4ccc(F)cn4)c3C2)CS(=O)(=O)C1 (racemic) [Example 119, 3-(3-(difluoromethoxy)phenyl)-1-(5-fluoropyridin-2-yl)-N-(3-methyl-1,1-dioxidothietan-3-yl)-1,5,6,7-tetrahydropyrano[3,2-c]pyrazole-6-carboxamide]
Second: CC(C)n1nc(-c2cc(OC(F)F)ccc2F)c2c1CC(C(=O)NC1(C)CS(=O)(=O)C1)CO2 (racemic) [Example 121, 3-(5-(difluoromethoxy)-2-fluorophenyl)-1-isopropyl-N-(3-methyl-1,1-dioxidothietan-3-yl)-1,5,6,7-tetrahydropyrano[3,2-c]pyrazole-6-carboxamide]
The IC50 of the first is 65-fold lower: 0.33 nM for the first, 21.5 nM for the second.

First: CC(C)n1nc(-c2cccc(OC(F)F)c2)c2c1CC(C(=O)NC1(C)CC(F)(F)C1)CO2 (racemic) [Example 124, N-(3,3-difluoro-1-methylcyclobutyl)-3-(3-(difluoromethoxy)phenyl)-1-isopropyl-1,5,6,7-tetrahydropyrano[3,2-c]pyrazole-6-carboxamide]
Second: CC(C)n1nc(-c2cccc(OC(F)F)c2)c2c1CC(C(=O)NC1(C)CS(=O)(=O)C1)OC2 (single isomer, unassigned) [EX-134a, 3-(3-(difluoromethoxy)phenyl)-1-isopropyl-N-(3-methyl-1,1-dioxidothietan-3-yl)-1,4,6,7-tetrahydropyrano[4,3-c]pyrazole-6-carboxamide]
The IC50 of the first is lower: 56.4 nM for the first, over 10000 nM for the second. The first is the more potent here.

First: CC(C)n1nc(-c2cccc(OC(F)F)c2)c2c1CC(C(=O)NC1(C)CS(=O)(=O)C1)OC2 (single isomer, unassigned) [EX-134b, 3-(3-(difluoromethoxy)phenyl)-1-isopropyl-N-(3-methyl-1,1-dioxidothietan-3-yl)-1,4,6,7-tetrahydropyrano[4,3-c]pyrazole-6-carboxamide]
Second: CC(n1nc(-c2cccc(OC(F)F)c2)c2c1C[C@H](C(=O)NC1(C)CCS(=O)(=O)CC1)CC2)C(C)(C)O (single isomer, unassigned) [Example 111a]
The IC50 of the first is 3.7-fold higher: 7610 nM for the first, 2070 nM for the second. The second is the more potent here.

First: C[C@]1(NC(=O)[C@H]2CCc3c(-c4ccccc4Cl)nn(-c4ccc(F)cc4)c3C2)CCS(=O)(=O)C1 (single isomer, unassigned) [Example 1a]
Second: C[C@]1(NC(=O)[C@@H]2CCc3c(-c4ccccc4Cl)nn(-c4ccc(F)cc4)c3C2)CCS(=O)(=O)C1 (single isomer, unassigned) [Example 1b]
The IC50 of the first is 120-fold higher: 3900 nM for the first, 33.7 nM for the second.

First: O=C(NC1(CO)CCC(F)(F)C1)[C@@H]1CCc2c(-c3cccc(OC(F)F)c3)nn(-c3ccc(F)cn3)c2C1 (single isomer, unassigned) [Example 8a]
Second: N#CC1(NC(=O)[C@@H]2CCc3c(-c4cncc(OC(F)F)c4)nn(-c4ccc(F)cn4)c3C2)CCOC1 (single isomer, unassigned) [Example 15a]
The IC50 of the first is 3.5-fold lower: 5 nM for the first, 17.4 nM for the second.

First: O=C(NC1(CO)CCC(F)(F)C1)[C@@H]1CCc2c(-c3cccc(OC(F)F)c3)nn(-c3ccc(F)cn3)c2C1 (single isomer, unassigned) [Example 8b]
Second: N#CC1(NC(=O)[C@@H]2CCc3c(-c4cncc(OC(F)F)c4)nn(-c4ccc(F)cn4)c3C2)CCOC1 (single isomer, unassigned) [Example 15b]
The IC50 of the first is 6.7-fold lower: 35 nM for the first, 236 nM for the second. The first is the more potent here.

First: CC(C(F)F)n1nc(-c2cc(OC(F)F)ccc2F)c2c1C[C@H](C(=O)NC1(C)CS(=O)(=O)C1)CC2 (single isomer, unassigned) [Example 48a]
Second: CC(C(F)F)n1nc(-c2cc(OC(F)F)ccc2F)c2c1C[C@H](C(=O)NC1(C)CCS(=O)(=O)CC1)CC2 (single isomer, unassigned) [Example 49a]
The IC50 of the first is 2.8-fold higher: 90.3 nM for the first, 32.1 nM for the second. The second is the more potent here.

First: CC(C(F)F)n1nc(-c2cc(OC(F)F)ccc2F)c2c1C[C@H](C(=O)NC1(C)CS(=O)(=O)C1)CC2 (single isomer, unassigned) [Example 48b]
Second: CC(C(F)F)n1nc(-c2cc(OC(F)F)ccc2F)c2c1C[C@H](C(=O)NC1(C)CCS(=O)(=O)CC1)CC2 (single isomer, unassigned) [Example 49b]
The IC50 of the first is 33-fold higher: 19.8 nM for the first, 0.6 nM for the second. The second is the more potent here.

Going from CCOc1cc(-c2nn(C(C)C(F)(F)F)c3c2CC[C@@H](C(=O)NC2(C)CCS(=O)(=O)CC2)C3)c(F)cn1 (single isomer, unassigned) [Example 53a] to CCOc1cc(-c2nn(C(C)C(C)(C)O)c3c2CC[C@@H](C(=O)NC2(C)CCS(=O)(=O)CC2)C3)c(F)cn1 (single isomer, unassigned) [Example 109a], the IC50 falls from 162 nM to 49.5 nM (3.3-fold). The second is the more potent here.

Compared with CCOc1cc(-c2nn(C(C)C(F)(F)F)c3c2CC[C@@H](C(=O)NC2(C)CCS(=O)(=O)CC2)C3)c(F)cn1 (single isomer, unassigned) [Example 53b], CCOc1cc(-c2nn(C(C)C(C)(C)O)c3c2CC[C@@H](C(=O)NC2(C)CCS(=O)(=O)CC2)C3)c(F)cn1 (single isomer, unassigned) [Example 109b] is 3-fold higher in IC50: 10.3 nM for the first, 30.7 nM for the second.

CC(C1CC1)n1nc(-c2cc(OC(F)F)ccc2F)c2c1C[C@H](C(=O)NC1(C)CS(=O)(=O)C1)CC2 (single isomer, unassigned) [Example 58a] and CC(n1nc(-c2cc(OC(F)F)ccc2F)c2c1C[C@H](C(=O)NC1(C)CS(=O)(=O)C1)CC2)C(C)(C)O (single isomer, unassigned) [Example 110a] are within 1.5-fold of each other in IC50: 23.4 nM for the first, 30.8 nM for the second.

First: CC(C1CC1)n1nc(-c2cc(OC(F)F)ccc2F)c2c1C[C@H](C(=O)NC1(C)CS(=O)(=O)C1)CC2 (single isomer, unassigned) [Example 58b]
Second: CC(n1nc(-c2cc(OC(F)F)ccc2F)c2c1C[C@H](C(=O)NC1(C)CS(=O)(=O)C1)CC2)C(C)(C)O (single isomer, unassigned) [Example 110b]
The IC50 of the first is 97-fold lower: 2.5 nM for the first, 243 nM for the second. The first is the more potent here.

Going from CC(n1nc(-c2cc(OCC(F)(F)F)ncc2F)c2c1C[C@H](C(=O)NC1(C)CCS(=O)(=O)CC1)CC2)C(C)(C)O (single isomer, unassigned) [Example 107a] to CC(n1nc(-c2cc(OCC(F)(F)F)ncc2F)c2c1C[C@H](C(=O)N[C@@]1(C)CCS(=O)(=O)C1)CC2)C(C)(C)O (single isomer, unassigned) [Example 112a], the IC50 rises from 3.9 nM to 11.3 nM (2.9-fold).

Compared with CC(n1nc(-c2cc(OCC(F)(F)F)ncc2F)c2c1C[C@H](C(=O)NC1(C)CCS(=O)(=O)CC1)CC2)C(C)(C)O (single isomer, unassigned) [Example 107b], CC(n1nc(-c2cc(OCC(F)(F)F)ncc2F)c2c1C[C@H](C(=O)N[C@@]1(C)CCS(=O)(=O)C1)CC2)C(C)(C)O (single isomer, unassigned) [Example 112b] is 5.9-fold higher in IC50: 5.4 nM for the first, 31.6 nM for the second. The first is the more potent here.

First: CCOc1cc(-c2nn(C(C)C(C)(C)O)c3c2CC[C@@H](C(=O)N[C@@]2(C)CCS(=O)(=O)C2)C3)c(F)cn1 (single isomer, unassigned) [Example 108a]
Second: CC(n1nc(-c2cc(OCC(F)(F)F)ncc2F)c2c1C[C@H](C(=O)NC1(C#N)CCS(=O)(=O)CC1)CC2)C(C)(C)O (single isomer, unassigned) [Example 113a]
The IC50 of the first is 1.6-fold higher: 44.1 nM for the first, 27.8 nM for the second. The second is the more potent here.

Compared with CCOc1cc(-c2nn(C(C)C(C)(C)O)c3c2CC[C@@H](C(=O)N[C@@]2(C)CCS(=O)(=O)C2)C3)c(F)cn1 (single isomer, unassigned) [Example 108b], CC(n1nc(-c2cc(OCC(F)(F)F)ncc2F)c2c1C[C@H](C(=O)NC1(C#N)CCS(=O)(=O)CC1)CC2)C(C)(C)O (single isomer, unassigned) [Example 113b] is 2.4-fold lower in IC50: 172 nM for the first, 70.3 nM for the second. The second is the more potent here.

Going from CC(n1nc(-c2cccc(OC(F)F)c2)c2c1C[C@H](C(=O)NC1(C)CCS(=O)(=O)CC1)CC2)C(C)(C)O (single isomer, unassigned) [Example 111b] to C[C@]1(NC(=O)[C@@H]2Cc3c(c(-c4cccc(OC(F)F)c4)nn3C3CCOCC3)C(F)(F)C2)CCS(=O)(=O)C1 (single isomer, unassigned) [Example 117a], the IC50 rises from 230 nM to over 10000 nM. The first is the more potent here.

Compared with CC1(NC(=O)[C@@H]2CCc3c(-c4cc(OC(F)F)ccc4F)nn(C4CCCC4O)c3C2)CS(=O)(=O)C1 (single isomer, unassigned) [Example 114a], C[C@]1(NC(=O)[C@H]2Cc3c(c(-c4cccc(OC(F)F)c4)nn3C3CCOCC3)C(F)(F)C2)CCS(=O)(=O)C1 (single isomer, unassigned) [Example 117b] is 4-fold higher in IC50: 44.5 nM for the first, 178 nM for the second. The first is the more potent here.

CC1(NC(=O)[C@@H]2CCc3c(-c4cc(OC(F)F)ccc4F)nn(C4CCCC4O)c3C2)CS(=O)(=O)C1 (single isomer, unassigned) [Example 114b] showed an IC50 of 129 nM.
CC1(NC(=O)[C@@H]2CCc3c(-c4cc(OC(F)F)ccc4F)nn(C4CCCC4O)c3C2)CS(=O)(=O)C1 (single isomer, unassigned) [Example 114c] was tested, and the IC50 was 99.9 nM.
Compound CC1(NC(=O)[C@@H]2CCc3c(-c4cc(OC(F)F)ccc4F)nn(C4CCCC4O)c3C2)CS(=O)(=O)C1 (single isomer, unassigned) [Example 114d] has an IC50 of 105 nM.
